We go through 16 molecules from the NIST ThermoML archive (doi:10.1016/j.jct.2016.01.017).

Numbers after ± are expanded uncertainties.

This data set is described as follows: activity coefficient (dimensionless); of the first substance listed, at infinite dilution; xn = mol fraction of the nth substance listed. The following applies: 100 kPa, Liquid, Chromatography, x1 = 0.

As to `CC#N` [acetonitrile] + CCCC[n+]1ccc(C#N)cc1.O=S(=O)([N-]S(=O)(=O)C(F)(F)F)C(F)(F)F, the activity coefficient (308.15 K) came to 0.432 ± 0.042; the activity coefficient (318.15 K) was determined as 0.449 ± 0.043; the activity coefficient (328.15 K) was 0.466 ± 0.044; the activity coefficient (338.15 K) was determined as 0.483 ± 0.045; the activity coefficient (348.15 K) is 0.5 ± 0.046; the activity coefficient (358.15 K) was 0.516 ± 0.047. Also, the activity coefficient (368.15 K) was 0.531 ± 0.048.
Regarding `c1ccccc1` [benzene] + CCCC[n+]1ccc(C#N)cc1.O=S(=O)([N-]S(=O)(=O)C(F)(F)F)C(F)(F)F, the activity coefficient runs as follows: (308.15 K) 1.07 ± 0.09; (318.15 K) 1.12 ± 0.09; (328.15 K) 1.17 ± 0.1; (338.15 K) 1.22 ± 0.1; (348.15 K) 1.28 ± 0.11; (358.15 K) 1.32 ± 0.11. Also, the activity coefficient (368.15 K) worked out at 1.38 ± 0.12.
`CCCCO` [butan-1-ol] + CCCC[n+]1ccc(C#N)cc1.O=S(=O)([N-]S(=O)(=O)C(F)(F)F)C(F)(F)F: the activity coefficient was found to be 3.19 ± 0.28 (308.15 K); 2.94 ± 0.25 (318.15 K); 2.74 ± 0.24 (328.15 K); 2.56 ± 0.22 (338.15 K); 2.41 ± 0.21 (348.15 K); 2.28 ± 0.2 (358.15 K). For the same molecule, under “368.15 K”, the activity coefficient was 2.15 ± 0.19.
With `CCC(C)O` (configuration not stated) [butan-2-ol] + CCCC[n+]1ccc(C#N)cc1.O=S(=O)([N-]S(=O)(=O)C(F)(F)F)C(F)(F)F, the activity coefficient was determined as 2.69 ± 0.23 (308.15 K); 2.5 ± 0.2 (318.15 K); 2.33 ± 0.2 (328.15 K); 2.18 ± 0.19 (338.15 K); 2.06 ± 0.18 (348.15 K); 1.94 ± 0.17 (358.15 K). Moreover, where the note is “368.15 K”, the activity coefficient was 1.84 ± 0.16.
With `CCCC=O` [butanal] + CCCC[n+]1ccc(C#N)cc1.O=S(=O)([N-]S(=O)(=O)C(F)(F)F)C(F)(F)F, the activity coefficient (308.15 K) is 0.7 ± 0.06; the activity coefficient (318.15 K) was found to be 0.738 ± 0.062; the activity coefficient (328.15 K) worked out at 0.773 ± 0.065; the activity coefficient (338.15 K) was 0.811 ± 0.068; the activity coefficient (348.15 K) amounted to 0.848 ± 0.071; the activity coefficient (358.15 K) turned out to be 0.884 ± 0.073. Besides, the activity coefficient (368.15 K) stood at 0.917 ± 0.076.
In the case of `C1CCCCCC1` [cycloheptane] + CCCC[n+]1ccc(C#N)cc1.O=S(=O)([N-]S(=O)(=O)C(F)(F)F)C(F)(F)F, the activity coefficient was found to be 22.3 ± 1.9 (308.15 K); 20.6 ± 1.8 (318.15 K); 19.1 ± 1.7 (328.15 K); 17.8 ± 1.5 (338.15 K); 16.7 ± 1.4 (348.15 K); 15.6 ± 1.3 (358.15 K). Where the note is “368.15 K”, the activity coefficient was 14.8 ± 1.3.
On to `C1CCCCC1` [cyclohexane] + CCCC[n+]1ccc(C#N)cc1.O=S(=O)([N-]S(=O)(=O)C(F)(F)F)C(F)(F)F, for which the activity coefficient (308.15 K) is 17.7 ± 1.5; the activity coefficient (318.15 K) came to 16.3 ± 1.4; the activity coefficient (328.15 K) was determined as 15.1 ± 1.3; the activity coefficient (338.15 K) stood at 14.2 ± 1.2; the activity coefficient (348.15 K) was found to be 13.2 ± 1.1; the activity coefficient (358.15 K) was found to be 12.4 ± 1.1. Also, for the setting “368.15 K”, the activity coefficient worked out at 11.7 ± 1.
`C1=CCCCC1` [cyclohexene] + CCCC[n+]1ccc(C#N)cc1.O=S(=O)([N-]S(=O)(=O)C(F)(F)F)C(F)(F)F: the activity coefficient stood at 7.51 ± 0.65 (308.15 K); 7.4 ± 0.64 (318.15 K); 7.28 ± 0.63 (328.15 K); 7.19 ± 0.62 (338.15 K); 7.1 ± 0.61 (348.15 K); 7.1 ± 0.61 (358.15 K). The activity coefficient (368.15 K) came to 6.9 ± 0.6.
Consider `C1CCCCCCC1` [cyclooctane] + CCCC[n+]1ccc(C#N)cc1.O=S(=O)([N-]S(=O)(=O)C(F)(F)F)C(F)(F)F, for which the activity coefficient is, setting by setting: (308.15 K) 26.5 ± 2.3; (318.15 K) 25.2 ± 2.2; (328.15 K) 24.1 ± 2.1; (338.15 K) 23.2 ± 2; (348.15 K) 22.4 ± 1.9; (358.15 K) 21.6 ± 1.9. For the same molecule, the activity coefficient (368.15 K) turned out to be 20.9 ± 1.8.
For `C1CCCC1` [cyclopentane] + CCCC[n+]1ccc(C#N)cc1.O=S(=O)([N-]S(=O)(=O)C(F)(F)F)C(F)(F)F, the activity coefficient is, setting by setting: (308.15 K) 12.7 ± 1.1; (318.15 K) 11.6 ± 1; (328.15 K) 10.7 ± 0.9; (338.15 K) 9.97 ± 0.86; (348.15 K) 9.31 ± 0.8; (358.15 K) 8.69 ± 0.75. Further, the activity coefficient (368.15 K) amounted to 8.14 ± 0.7.
On to `CCCCCCCCCC` [decane] + CCCC[n+]1ccc(C#N)cc1.O=S(=O)([N-]S(=O)(=O)C(F)(F)F)C(F)(F)F, for which the activity coefficient (308.15 K) turned out to be 124 ± 11; the activity coefficient (318.15 K) came out at 115 ± 10; the activity coefficient (328.15 K) came out at 107 ± 9; the activity coefficient (338.15 K) turned out to be 99.8 ± 8.6; the activity coefficient (348.15 K) was found to be 93.8 ± 8.1; the activity coefficient (358.15 K) worked out at 88.2 ± 7.6. Moreover, the activity coefficient (368.15 K) was 83.6 ± 7.2.
Consider `CCOCC` [diethyl ether] + CCCC[n+]1ccc(C#N)cc1.O=S(=O)([N-]S(=O)(=O)C(F)(F)F)C(F)(F)F, for which the activity coefficient runs as follows: (308.15 K) 3.17 ± 0.27; (318.15 K) 3.24 ± 0.28; (328.15 K) 3.31 ± 0.29; (338.15 K) 3.37 ± 0.29; (348.15 K) 3.44 ± 0.3; (358.15 K) 3.5 ± 0.3. In addition, under “368.15 K”, the activity coefficient came to 3.56 ± 0.31.
For `CC(C)OC(C)C` [diisopropyl ether] + CCCC[n+]1ccc(C#N)cc1.O=S(=O)([N-]S(=O)(=O)C(F)(F)F)C(F)(F)F, the activity coefficient is, setting by setting: (308.15 K) 9.7 ± 0.84; (318.15 K) 9.65 ± 0.83; (328.15 K) 9.59 ± 0.83; (338.15 K) 9.57 ± 0.83; (348.15 K) 9.53 ± 0.82; (358.15 K) 9.48 ± 0.82. For the same molecule, under “368.15 K”, the activity coefficient was found to be 9.45 ± 0.82.
`CCCOCCC` [dipropyl ether] + CCCC[n+]1ccc(C#N)cc1.O=S(=O)([N-]S(=O)(=O)C(F)(F)F)C(F)(F)F: the activity coefficient (308.15 K) came to 8.88 ± 0.77; the activity coefficient (318.15 K) was found to be 8.84 ± 0.76; the activity coefficient (328.15 K) turned out to be 8.83 ± 0.76; the activity coefficient (338.15 K) came out at 8.78 ± 0.76; the activity coefficient (348.15 K) was found to be 8.75 ± 0.76; the activity coefficient (358.15 K) is 8.73 ± 0.75. Further, for the setting “368.15 K”, the activity coefficient is 8.71 ± 0.75.
Consider `CCO` [ethanol] + CCCC[n+]1ccc(C#N)cc1.O=S(=O)([N-]S(=O)(=O)C(F)(F)F)C(F)(F)F, for which the activity coefficient runs as follows: (308.15 K) 1.86 ± 0.16; (318.15 K) 1.74 ± 0.15; (328.15 K) 1.64 ± 0.14; (338.15 K) 1.55 ± 0.13; (348.15 K) 1.47 ± 0.12; (358.15 K) 1.39 ± 0.12. In addition, the activity coefficient (368.15 K) stood at 1.33 ± 0.11.
With `CCOC(C)=O` [ethyl acetate] + CCCC[n+]1ccc(C#N)cc1.O=S(=O)([N-]S(=O)(=O)C(F)(F)F)C(F)(F)F, the activity coefficient by setting is: (308.15 K) 0.839 ± 0.07; (318.15 K) 0.89 ± 0.074; (328.15 K) 0.941 ± 0.077; (338.15 K) 0.995 ± 0.082; (348.15 K) 1.05 ± 0.09; (358.15 K) 1.1 ± 0.09. The activity coefficient (368.15 K) was 1.15 ± 0.1.
